Assay results: the supplement of paper PMC10307832

Key:
Assay in all cases: relative viability (nuclei count vs DMSO), 5 days (fraction); higher = more cells survive
[1] = compound: COc1cc2/c(=N/c3ccc(Br)cc3F)nc[nH]c2cc1OCC1CCN(C)CC1 [Vandetanib] + C[C@]1(O)C[C@@H](c2nc(-c3ccc4ccc(-c5ccccc5)nc4c3)c3c(N)nccn32)C1 [Linsitinib] (partner 1 µM)
Summary of the method: (§1)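 Medians of duplicate plates are given as relative viability. That measure is the nuclei count in treated wells divided by the count in vehicle wells. Counts were taken on 4× images of lung cancer cell lines in 1536-well plates, 5 days after pin-tool dosing the day after seeding with one drug alone or a fixed anchor-drug dose plus five library-drug doses (not always all listed) in √10 steps.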

[2] = compound: C1=CC=C2C(=C1)N=C(S2)C(C#N)C3=NC(=NC=C3)NCCC4=CN=CC=C4 + N=C(N)NC(=N)NCCc1ccccc1 [Phenformin] (partner 250 µM)
Summary of the method: as §1

[3] = compound: COc1cc(N2CCC(N3CCN(C)CC3)CC2)ccc1Nc1ncc(Cl)c(Nc2ccccc2S(=O)(=O)C(C)C)n1 [NVP-TAE684] + Nc1ncn([C@H]2C[C@H](O)[C@@H](CO)O2)c(=O)n1 [Decitabine] (partner 2 µM)
Summary of the method: as §1

[4] = compound: C1=CC=C2C(=C1)N=C(S2)C(C#N)C3=NC(=NC=C3)NCCC4=CN=CC=C4 + CS(=O)(=O)CCNCc1ccc(-c2ccc3ncnc(Nc4ccc(OCc5cccc(F)c5)c(Cl)c4)c3c2)o1 [Lapatinib] (partner 2 µM)
Summary of the method: as §1

Cell Line	relative viability ([1]; first compound 0.02 µM)	relative viability ([1]; first compound 0.06325 µM)	relative viability ([1]; first compound 0.2 µM)	relative viability ([1]; first compound 0.6325 µM)	relative viability ([1]; first compound 2 µM)	relative viability ([2]; first compound 0.005 µM)	relative viability ([2]; first compound 0.01581 µM)	relative viability ([2]; first compound 0.05 µM)	relative viability ([2]; first compound 0.1581 µM)	relative viability ([2]; first compound 0.5 µM)	relative viability ([3]; first compound 0.6325 µM)	relative viability ([3]; first compound 2 µM)	relative viability ([4]; first compound 0.005 µM)	relative viability ([4]; first compound 0.01581 µM)	relative viability ([4]; first compound 0.05 µM)	relative viability ([4]; first compound 0.1581 µM)	relative viability ([4]; first compound 0.5 µM)	relative viability ([3]; first compound 0.2 µM)
201T	1.08	0.936	0.989	0.944	1.01	0.415	0.425	0.423	0.504	0.346	0.867	0.684	0.981	0.958	1.01	1.09	1.02	
A549	0.718	0.498	0.711	0.587	0.495	0.254		0.146	0.246	0.212	0.248	0.286	1.04	0.97	1.04	1.07	0.942	
A-427	1.05	1.05	1.11	1.04	1.12	0.252	0.34	0.367	0.322	0.288	0.53	0.44	0.78	0.889	1.01	1.12	1.08	0.58
ABC-1	1.03	0.805	1.02	0.849	0.598	0.245	0.22	0.241	0.219	0.251	0.938	0.679	1.08	1.26	1.21	1.02	1.21	1.14
BEN	0.851	0.82	0.869	0.868	0.793	0.243	0.28	0.286	0.304	0.46	0.622	0.643	0.561	0.689	0.62	0.792	0.826	
CAL-12T	0.874	0.774	0.923	0.781	0.647	0.539	0.433	0.584	0.619	0.485			0.782			0.675	0.674	
COR-L23	0.757	0.688	0.131	0.919	0.955	0.355	0.49	0.467	0.465	0.377	0.339	0.252	0.629	1.15	1.01	1.29	0.71	0.415
COR-L 105	0.891	0.877	0.976	0.54	0.444	0.322	0.487	0.582	0.525	0.411	0.701	0.429	0.362	0.336	0.342	0.372	0.369	0.681
Calu-6	0.939	0.861	0.911	0.975	0.876								0.877	1.05	0.959	1.18	0.958	
ChaGo-K-1							0.373	0.48	0.54	0.536	0.52	0.427						0.536
EBC-1	0.742	0.893	0.958	0.885	0.925								0.272	0.19	0.239	0.194	0.259	
EKVX	1.04	0.948	0.962	0.793	0.493	0.245	0.239	0.243	0.273	0.23	0.354	0.325	0.237	0.185	0.201	0.211	0.195	0.317
EMC-BAC-2	0.792	0.772	0.612	0.77	0.673	0.413	0.517	0.516	0.657	0.368	0.946	0.708	0.845	0.855	0.826	1.02	0.879	0.978
EPLC-272H	1.21	0.971	1.11	1.13	1.18	0.225	0.243	0.275	0.286	0.311	0.357	0.299	0.784	0.642	1.02	1.15	0.684	0.326
H3255	1.1	0.9	0.949	0.654	0.181	0.385	0.354	0.402	0.62	0.366	0.547	0.506	0.225	0.227	0.234	0.261	0.251	0.582
HARA	1.03	0.749	1.04	0.985	0.989	0.474	0.484	0.488	0.46	0.465	0.55	0.234	0.692	0.862	0.643	1.01	0.676	0.664
HCC-15	0.816	0.804	0.91	0.864	0.849	0.427	0.437	0.455	0.579	0.401	0.524	0.484	0.798	0.84	0.817	0.947	0.805	0.582
HCC-44	0.642	0.64	0.753	0.724	0.688	0.271	0.183	0.211	0.296	0.162	0.955	0.876	0.848	1.02	1.01	1.16	0.823	0.946
HCC-78	0.414	0.438	0.567	0.579	0.337	0.677	0.635	0.656	0.814	0.741	0.634	0.49	1.07	0.664	0.57	1.01	0.896	0.636
HCC-366	0.644	0.488	0.584	0.636	0.526	0.551	0.615	0.547	0.722	0.601	0.401	0.315	0.941	1.15	0.921	1.18	1.07	0.37
HCC-827	0.922	0.941	0.929	0.367	0.198	0.376	0.455	0.358	0.46	0.422	0.279	0.311	0.242	0.183	0.259	0.188	0.208	0.301
HOP-62	1.04	0.965	0.926	1.05	0.977	0.4	0.764	0.633	0.788	0.523	0.236	0.266	0.874	1	0.893	1.12	0.903	0.242

Cell Line	relative viability ([1]; first compound 0.02 µM)	relative viability ([1]; first compound 0.06325 µM)	relative viability ([1]; first compound 0.2 µM)	relative viability ([1]; first compound 0.6325 µM)	relative viability ([1]; first compound 2 µM)	relative viability ([2]; first compound 0.005 µM)	relative viability ([2]; first compound 0.01581 µM)	relative viability ([2]; first compound 0.05 µM)	relative viability ([2]; first compound 0.1581 µM)	relative viability ([2]; first compound 0.5 µM)	relative viability ([3]; first compound 0.6325 µM)	relative viability ([3]; first compound 2 µM)	relative viability ([4]; first compound 0.005 µM)	relative viability ([4]; first compound 0.01581 µM)	relative viability ([4]; first compound 0.05 µM)	relative viability ([4]; first compound 0.1581 µM)	relative viability ([4]; first compound 0.5 µM)	relative viability ([3]; first compound 0.2 µM)
IA-LM	0.616	0.567	0.616	0.593	0.673									1.02	0.824	0.888	0.673	
LC-2-ad	0.818	0.787	0.841	0.746	0.417	0.575	0.507	0.541	0.598	0.611	0.78	0.606	0.648	0.976	0.946	1	0.634	0.754
LCLC-97TM1	0.197	0.171	0.171	0.171	0.136	0.429	0.417	0.403	0.431	0.407	0.184	0.153	0.971	0.803	0.897	0.954	0.674	0.208
LCLC-103H	1.09	1	1.23	0.929	1.03	0.289	0.336	0.286	0.369	0.298	0.69	0.683						0.7
LK-2	1.08	0.513	0.909	0.9	0.319	0.392	0.289	0.396	0.58	0.33	0.205	0.146		0.931	0.917	1.15	0.819	0.24
LOU-NH91	0.954	0.733	0.679	0.685	0.629	0.677	0.702	0.597	0.687	0.685	0.782	0.645	0.799	0.758	0.688	0.739	0.724	0.801
LU99A	0.487	0.529	0.599	0.522	0.55	0.767	0.9	0.793	1.07	0.814		0.496	0.704	1.02	0.886	1.17	0.976	0.97
LXF-289	0.949	0.942	0.957	0.971	0.967	0.447	0.563	0.458	0.592	0.496	0.384	0.267	0.803	0.914	0.915	1	0.864	0.433
NCI-H23	0.685	0.531	0.519	0.57	0.425	0.638	0.762	0.804	0.934	0.886	0.322	0.241		1.16	1.12	1.22	1.14	0.31
NCI-H441	0.597	0.538	0.498	0.592	0.472		0.993	1	0.913	0.79	0.279	0.232						0.235
NCI-H522						0.649	0.642	0.61	0.691	0.588	0.731	0.66						0.604
NCI-H1299	0.912	0.916	0.997	0.957	1								0.941	0.991	0.946	0.998	0.918	
NCI-H1563	1.24	1.06	1.18	1.19	1.11	0.595	0.62	0.635	0.673	0.667			0.857	0.871	0.775	0.938	0.916	
NCI-H1623						0.62	0.582	0.567	0.617	0.579								
NCI-H1648											0.449	0.27						0.39
NCI-H1650						0.375	0.335	0.523	0.402	0.377	0.411	0.343	0.894	0.658	0.758	0.829	0.863	0.399
NCI-H1703	0.543	0.73	1.14	0.637	0.535								0.869	1.11	0.851	1.1	1.19	
NCI-H2170						0.396	0.405	0.446	0.417	0.384	0.477	0.418		0.258	0.249	0.285	0.259	0.472
NCI-H2228	0.589	0.54		0.707	0.585	0.19	0.281	0.299	0.316	0.314			0.725	1.01	1.18	1.46	0.924	
NCI-H2342						0.495	0.591	0.674	0.606	0.614	0.835	0.632						0.727
SW 900						0.418	0.704	0.627	1.02	0.338	0.444	0.421						0.433
